In PubChem BioAssay (NCI):
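All cell lines were grown in 96-well plates and treated with compound for 48 hours. The concentration for 50% growth inhibition is given as GI50. At the TGI there is no net growth.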 Calls of active or inactive are those of the source. No stated cut-off is given here; in the data, active means GI50 below about 0.43 µM; inactive means the rest.

Test system: MDA-MB-468 breast
Assay: NCI anticancer screen, dose series, 48 h

**Q.** How did the GI50 turn out when N#CC1=C(N)Oc2c(ccc3ccccc23)C1c1ccccc1Cl (stereo unspecified) was run?
**A.** 466 nM

**Q.** And the TGI?
**A.** 20700 nM

**Q.** For CN(C)CCCn1c2c(c3ccncc3c1=O)C(=O)c1ccccc1-2, which GI50 is on record?
**A.** 461 nM

**Q.** What about the TGI of the same compound?
**A.** 3020 nM

**Q.** What does the source list for CCC(CC)N1C(=O)/C(=c2\sc3n(c2=O)C2C(NN=3)N(CC)C(=O)N2CC)c2ccccc21 (stereo unspecified)?
**A.** GI50: 489 nM; TGI: 27000 nM

**Q.** With Cc1nc2cc(NC(=O)CN3CCN(CCN4C(=O)c5cccc6cccc(c56)C4=O)CC3)ccc2s1 as the compound, how does the GI50 read?
**A.** 3630 nM

**Q.** What about the TGI of the same compound?
**A.** 16600 nM

**Q.** C=CC(=O)N1CC[C@@H](Oc2nc(Nc3ccc(N4CCC(N5CCN(C)CC5)CC4)cc3)c(C(N)=O)nc2CC)C1 was tested. Which GI50 did it give?
**A.** > 100000 nM

**Q.** What about the TGI of the same compound?
**A.** > 100000 nM

**Q.** CCN(CC)CCCC(C)NC(=S)N/N=C(\C)c1ccccn1 (stereo unspecified) was tested. Which GI50 did it give?
**A.** 1890 nM

**Q.** What about the TGI of the same compound?
**A.** 5650 nM

**Q.** For COC(=O)[C@@H](C)C[C@H](Cc1ccccc1)NC(=O)c1cccc([C@@H](C[C@H](C(C)C)N(C)C(=O)[C@@H](NC(=O)[C@H]2CCCCN2C)C(C)C)OC(C)=O)n1, which GI50 is on record?
**A.** < 1.67 nM

**Q.** What about the TGI of the same compound?
**A.** 143 nM

**Q.** Which results are given for C#Cc1cccc(NC(=O)Nc2cccc(NC(=O)CCl)c2)c1?
**A.** GI50: 19400 nM; TGI: 78700 nM

**Q.** With CCN(CC)CCC(CNc1c2ccc(Cl)cc2nc2ccc(OC)cc12)c1ccccc1 (stereo unspecified) as the compound, how does the GI50 read?
**A.** 1570 nM

**Q.** What about the TGI of the same compound?
**A.** 3010 nM

**Q.** Oc1ccc(-c2nc(-c3ccc4oc5ccc(-c6[nH]c(-c7ccc(O)cc7)nc6-c6ccccc6)cc5c4c3)c(-c3ccccc3)[nH]2)cc1 was tested. Which GI50 did it give?
**A.** 6650 nM

**Q.** What about the TGI of the same compound?
**A.** 88500 nM

**Q.** How did the GI50 turn out when Oc1c(Br)cc(Br)c2cccnc12 was run?
**A.** 2430 nM

**Q.** And the TGI?
**A.** 7530 nM

**Q.** For Cc1cc(N2CCOCC2)nc(N(CCNc2ccnc3cc(Cl)ccc23)Cc2cccs2)n1, which GI50 is on record?
**A.** 2110 nM

**Q.** What about the TGI of the same compound?
**A.** 5080 nM

**Q.** With COc1c(C)cnc(Cn2cnc3c(Cl)nc(N)nc32)c1C as the compound, how does the GI50 read?
**A.** 169 nM

**Q.** What about the TGI of the same compound?
**A.** 1530 nM

**Q.** With CCCCCCn1c(=N)n(CC(O)COc2cccc(C)c2)c2ccccc21 (stereo unspecified) as the compound, how does the GI50 read?
**A.** 1710 nM

**Q.** And the TGI?
**A.** 3540 nM

**Q.** Cn1c([N+](=O)[O-])cnc1/C=C1\Oc2ccc(Cl)cc2C1=O was tested. Which GI50 did it give?
**A.** 1920 nM

**Q.** What about the TGI of the same compound?
**A.** 4790 nM

**Q.** How did the GI50 turn out when COc1ccc(/C=C2\CN(Cc3cn(CCCNc4ccnc5cc(Cl)ccc45)nn3)C/C(=C\c3ccc(OC)cc3)C2=O)cc1 was run?
**A.** 11900 nM

**Q.** What about the TGI of the same compound?
**A.** 26200 nM

**Q.** What does the source list for CNCc1ccc(C)c(NC(=O)c2ccc(Nc3nc(-c4ccccc4)c4ccccc4n3)cc2)c1?
**A.** GI50: 1610 nM; TGI: 3130 nM

**Q.** Which results are given for COc1cc2c(cc1Nc1nc(Nc3ccsc3C(N)=O)c3cc[nH]c3n1)N(C(=O)CN(C)C)CCC2?
**A.** GI50: 82.7 nM; TGI: 947 nM

**Q.** How did the GI50 turn out when CC(CCC/C=C/CCCN(C)C(=N)N)CC(C)C1OC(=O)C(C)C(O)/C=C/C(C)C(O)C(C)C(O)C(C)C(O)CCCC(O)CC2(O)OC(CC(OC(=O)CC(=O)O)CC(O)CC(O)C(C)C(O)/C=C/C=C/C1C)CC(O)C2O (stereo unspecified) was run?
**A.** 1770 nM

**Q.** And the TGI?
**A.** 3290 nM

**Q.** And the outcome?
**A.** inactive

**Q.** For CCOC(=O)C(Cc1ccc(N(CCCl)CCCl)cc1)NC(=O)C(CC(C)C)NC(C)=O (stereo unspecified), which GI50 is on record?
**A.** 426 nM

**Q.** And the TGI?
**A.** 2180 nM

**Q.** Which results are given for CC1SC(c2cccc(Oc3ccccc3)c2)N(CCc2cccs2)C1=O (stereo unspecified)?
**A.** GI50: 745 nM; TGI: 2910 nM

**Q.** Which GI50 does the source give for C=C1C(=O)O[C@H]2[C@H]1CC/C(Cn1cc(CNC(=O)c3cc4ccccc4[nH]3)nn1)=C\CC[C@@]1(C)O[C@@H]21 here?
**A.** 1450 nM

**Q.** What about the TGI of the same compound?
**A.** 3660 nM

**Q.** Cc1nn(-c2ccccc2)c2ncc3c(c12)C(=O)N(Cc1ccccc1)C3=O was tested. Which GI50 did it give?
**A.** 9210 nM

**Q.** And the TGI?
**A.** > 100000 nM

**Q.** Which results are given for COc1ccc(C2CC(c3ccc(OC)c(OC)c3)=NN2C(=O)c2cc(OC)c(OC)c(OC)c2)cc1 (stereo unspecified)?
**A.** GI50: 575 nM; TGI: 5210 nM

**Q.** For CCCCc1ccc(C(N)=O)nc1, which GI50 is on record?
**A.** > 100000 nM

**Q.** And the TGI?
**A.** > 100000 nM

**Q.** For Cn1cc(C2=C(c3cn(CCCSC(=N)N)c4ccccc34)C(=O)NC2=O)c2ccccc21, which GI50 is on record?
**A.** 569 nM

**Q.** What about the TGI of the same compound?
**A.** 1900 nM

**Q.** With Cn1cnc2nc(Cl)nc(Cl)c21 as the compound, how does the GI50 read?
**A.** 3680 nM

**Q.** And the TGI?
**A.** 18700 nM

**Q.** Which results are given for O=C1/C(=C/c2ccc([N+](=O)[O-])s2)Oc2ccc(Cl)cc21?
**A.** GI50: 440 nM; TGI: 1560 nM

**Q.** With O=C(/C=C\c1ccc(Cl)c(Cl)c1)c1ccccc1 as the compound, how does the GI50 read?
**A.** 14300 nM

**Q.** What about the TGI of the same compound?
**A.** 36900 nM

**Q.** For COc1ccc(N2CCN(CC(=O)N3CCN(c4nnc(-c5ccc(Cl)cc5)c(-c5ccc(Cl)cc5)n4)CC3)CC2)cc1, which GI50 is on record?
**A.** 11500 nM

**Q.** What about the TGI of the same compound?
**A.** 45500 nM

**Q.** With Cc1cccc(NC(=O)c2sc3nc4c(cc3c2N)CCC4)c1C as the compound, how does the GI50 read?
**A.** 196 nM

**Q.** What about the TGI of the same compound?
**A.** 685 nM

**Q.** What does the source list for CN1CCN(Cc2ccc(NC(=O)c3cncc(C#Cc4c(N)ncc5ccc(F)cc45)c3)cc2C(F)(F)F)CC1?
**A.** GI50: 4190 nM; TGI: 12300 nM

**Q.** With CCOC(=O)c1ccccc1NC(c1ccccc1)c1ccc2cccnc2c1O (stereo unspecified) as the compound, how does the GI50 read?
**A.** 2450 nM

**Q.** And the TGI?
**A.** 6860 nM

**Q.** Which GI50 does the source give for COc1cc(C2C3=C(COC3=O)N(CCO)c3cc4c(cc32)CCC4)cc(OC)c1OC (stereo unspecified) here?
**A.** 61.7 nM

**Q.** And the TGI?
**A.** 151 nM

**Q.** With COc1ccc(/C(C)=C(\c2ccc(Cl)cc2)c2ccc(OCCN3CCCCC3)cc2)cc1F as the compound, how does the GI50 read?
**A.** 2490 nM

**Q.** And the TGI?
**A.** 5620 nM

**Q.** With Cc1cc(F)cc(NS(=O)(=O)c2ccc(-c3cnc(C4CC4)o3)cc2)c1 as the compound, how does the GI50 read?
**A.** 79 nM

**Q.** And the TGI?
**A.** 2420 nM

**Q.** Which GI50 does the source give for CC(=O)OC1C(OC/C2=C/C3[C@@H](C(C)C)CC=C(C)[C@@H]3CC(OC(=O)/C=C/c3cn(C)cn3)[C@]3(C)C=C[C@@]2(O)O3)OCC(O)C1O (stereo partly specified) here?
**A.** 10.8 nM

**Q.** What about the TGI of the same compound?
**A.** 98.8 nM

**Q.** What does the source list for COc1ccc(C2CC(c3cccc(Nc4ccnc5cc(Cl)ccc45)c3)=NN2c2ccc(Cl)cc2)cc1 (stereo unspecified)?
**A.** GI50: 4450 nM; TGI: 40300 nM

**Q.** With CCS(=O)(=O)Nc1ccc(Oc2ccc(F)cc2F)c(-c2cn(C)c(=O)c3[nH]ccc23)c1 as the compound, how does the GI50 read?
**A.** 51.2 nM

**Q.** And the TGI?
**A.** 5010 nM

**Q.** Which GI50 does the source give for O=C(/C=C/CN1CCCCC1)Nc1cc2c(Nc3ccc(F)c(Cl)c3F)ncnc2cc1OCCOC(F)F here?
**A.** < 10 nM

**Q.** And the TGI?
**A.** 11.8 nM
